Assay results reported in patent US10980889B1 (Revolution Medicines, Inc., priority 2018, dated 2021).

Key:
[1] = tested on: P-Akt (S473); experiment: Cell based AlphaLISA assay, inhibition of P-Akt (S473) in MDA-MB-468 cells (mTORC2 substrate); conditions: AlphaLisa, two to four hours at 37° C.; for IC50: Homo sapiens, 4 h, read-out: pIC50 for Inhibition of mTORC1 and mTORC2 Substrate Phosphorylation p-AKT1/2/3-(S473) (converted)
Method: (§1) Cell Based AlphaLISA Assays For Determining IC50 For Inhibition of P-Akt (S473), P-4E-BP1(T37/46), and P-P70S6K (T389) in MDA-MB-468 Cells
(§2) mTOR Kinase Cellular Assay
(§3) To measure functional activity of mTORC1 and mTORC2 in cells the phosphorylation of 4EBPT (Thr37/46) and P70S6K (Thr389), and AKT1/2/3 (Ser473) was monitored using AlphaLisa SureFire Ultra Kits (Perkin Elmer). […] Incubations were terminated by removal of the assay buffer and addition of lysis buffer provided with the assay kit. Samples were processed according to the manufacturer's instructions. The Alpha signal from the respective phosphoproteinswas measured in duplicate using a microplate reader (Envision, Perkin-Elmer or Spectramax M5, Molecular Devices). Inhibitor concentration response curves were analyzed using normalized IC50 regression curve filling with control based normalization.

[2] = tested on: P-P70S6K (T389); experiment: Cell based AlphaLISA assay, inhibition of P-P70S6K (T389) in MDA-MB-468 cells (mTORC1 substrate); conditions: AlphaLisa, two to four hours at 37° C.; for IC50: Homo sapiens, 4 h, read-out: pIC50 for Inhibition of mTORC1 and mTORC2 Substrate Phosphorylation p-P70S6K-(T389) (converted)
Method: as §1, §2, §3

[3] = tested on: P-4E-BP1 (T37/46); experiment: Cell based AlphaLISA assay, inhibition of P-4E-BP1 (T37/46) in MDA-MB-468 cells (mTORC1 substrate); conditions: AlphaLisa, two to four hours at 37° C.; for IC50: Homo sapiens, 4 h, read-out: pIC50 for Inhibition of mTORC1 and mTORC2 Substrate Phosphorylation P-4E-BP1-(T37/46) (converted)
Method: as §1, §2, §3

Structure (SMILES)	IC50 [1] [nM]	IC50 [2] [nM]	IC50 [3] [nM]	pIC50 for Inhibition of mTORC1 and mTORC2 Substrate Phosphorylation p-AKT1/2/3-(S473) [1]	pIC50 for Inhibition of mTORC1 and mTORC2 Substrate Phosphorylation p-P70S6K-(T389) [2]	pIC50 for Inhibition of mTORC1 and mTORC2 Substrate Phosphorylation P-4E-BP1-(T37/46) [3]
CO[C@H]1C[C@@H]2CC[C@@H](C)[C@@](O)(O2)C(=O)C(=O)N2CCCC[C@H]2C(=O)O[C@H]([C@H](C)C[C@@H]2CC[C@@H](OC(=O)NCc3cnc(N4CCN(C(=O)CCOCCN5CCN(c6ncc(C(=O)NCCS(=O)(=O)c7ccc(C(=O)N8CCOc9ccc(-c%10ccc(N)nc%10)cc9C8)c(C)c7F)cn6)CC5)CC4)nc3)[C@H](OC)C2)C[C@@H](OC)[C@H](C)/C=C(\C)[C@@H](O)[C@@H](OC)C(=O)[C@H](C)C[C@H](C)/C=C/C=C/C=C/1C [Example 123]	31.6 to 1000	< 1	< 3.16			
CO[C@H]1C[C@@H]2CC[C@@H](C)[C@@](O)(O2)C(=O)C(=O)N2CCCC[C@H]2C(=O)O[C@H]([C@H](C)C[C@@H]2CC[C@@H](OC(=O)NCc3cnc(N4CCN(C(=O)CCOCCN5CCN(c6ncc(C(=O)N7CCc8cc(Cn9nc(-c%10ccc%11oc(N)nc%11c%10)c%10c(N)ncnc%109)ccc8C7)cn6)CC5)[C@@H](C(=O)O)C4)nc3)[C@H](OC)C2)C[C@@H](OC)[C@H](C)/C=C(\C)[C@@H](O)[C@@H](OC)C(=O)[C@H](C)C[C@H](C)/C=C/C=C/C=C/1C [Example 134]	> 1000	< 1	< 3.16			
CO[C@H]1C[C@@H]2CC[C@@H](C)[C@@](O)(O2)C(=O)C(=O)N2CCCC[C@H]2C(=O)O[C@H]([C@H](C)C[C@@H]2CC[C@@H](OC(=O)NCCOCCOCCOCCOCCOCCOCCOCCOCCC(=O)NCc3ccc(Cn4nc(-c5ccc6oc(N)nc6c5)c5c(N)ncnc54)cc3)[C@H](OC)C2)C[C@@H](OC)[C@H](C)/C=C(\C)[C@@H](O)[C@@H](OC)C(=O)[C@H](C)C[C@H](C)/C=C/C=C/C=C/1C [Example 81]				− (<6)	+++ (≥9)	++ (8.5 > pIC50 ≥ 7.5)
CO[C@H]1C[C@@H]2CC[C@@H](C)[C@@](O)(O2)C(=O)C(=O)N2CCCC[C@H]2C(=O)O[C@H]([C@H](C)C[C@@H]2CC[C@@H](OC(=O)NCCOCCOCCOCCOCCOCCOCCOCCOCCC(=O)N3CCc4cc(Cn5nc(-c6ccc7oc(N)nc7c6)c6c(N)ncnc65)ccc4C3)[C@H](OC)C2)C[C@@H](O)[C@H](C)/C=C(\C)[C@@H](O)[C@@H](OC)C(=O)[C@H](C)C[C@H](C)/C=C/C=C/C=C/1C [Example 75]				++ (8.5 > pIC50 ≥ 7.5)	+++ (≥9)	+++ (≥8.5)
CO[C@H]1C[C@@H]2CC[C@@H](C)[C@@](O)(O2)C(=O)C(=O)N2CCCC[C@H]2C(=O)O[C@H]([C@H](C)C[C@@H]2CC[C@@H](OC(=O)NCc3cnc(N4CCN(C(=O)CCOCCN5CCN(C(=O)CCC(=O)N6CCc7cc(Cn8nc(-c9ccc%10oc(N)nc%10c9)c9c(N)ncnc98)ccc7C6)CC5)CC4)nc3)[C@H](OC)C2)C[C@@H](OC)[C@H](C)/C=C(\C)[C@@H](O)[C@@H](OC)C(=O)[C@H](C)C[C@H](C)/C=C/C=C/C=C/1C [Example 133]	3.16 to 31.6	< 1	< 3.16			
CO[C@H]1C[C@@H]2CC[C@@H](C)[C@@](O)(O2)C(=O)C(=O)N2CCCC[C@H]2C(=O)O[C@H]([C@H](C)C[C@@H]2CC[C@@H](OC(=O)NCc3cnc(N4CCN(CCOCCOCCOCCOCCC(=O)N5CCc6cc(Cn7nc(-c8ccc9oc(N)nc9c8)c8c(N)ncnc87)ccc6C5)CC4)nc3)[C@H](OC)C2)C[C@@H](OC)[C@H](C)/C=C(\C)[C@@H](O)[C@@H](OC)C(=O)[C@H](C)C[C@H](C)/C=C/C=C/C=C/1C [Example 89]	> 1000	< 1	< 3.16			
CO[C@H]1C[C@@H]2CC[C@@H](C)[C@@](O)(O2)C(=O)C(=O)N2CCCC[C@H]2C(=O)O[C@H]([C@H](C)C[C@@H]2CC[C@@H](OC(=O)NCc3cnc(N4CCN(C(=O)CN(C)CC(=O)NCCOCCOCCC(=O)N5CCc6cc(Cn7nc(-c8ccc9oc(N)nc9c8)c8c(N)ncnc87)ccc6C5)CC4)nc3)[C@H](OC)C2)C[C@@H](OC)[C@H](C)/C=C(\C)[C@@H](O)[C@@H](OC)C(=O)[C@H](C)C[C@H](C)/C=C/C=C/C=C/1C [Example 91]	3.16 to 31.6	< 1	< 3.16			
CO[C@H]1C[C@@H]2CC[C@@H](C)[C@@](O)(O2)C(=O)C(=O)N2CCCC[C@H]2C(=O)O[C@H]([C@H](C)C[C@@H]2CC[C@@H](OC(=O)NCc3cnc(N4CCN(C(=O)CCOCCN5CCN(c6ncc(C(=O)N7CCc8cc(Cn9nc(-c%10ccc%11oc(N)nc%11c%10)c%10c(N)ncnc%109)ccc8C7)cn6)CC5)CC4)nc3)[C@H](OC)C2)CC(=O)[C@H](C)/C=C(\C)[C@@H](O)[C@@H](OC)C(=O)[C@H](C)C[C@H](C)/C=C/C=C/C=C/1C [Example 109]	> 1000	10 to 1000	> 1000			
CO[C@H]1C[C@@H]2CC[C@@H](C)[C@@](O)(O2)C(=O)C(=O)N2CCCC[C@H]2C(=O)O[C@H]([C@H](C)C[C@@H]2CC[C@@H](OC(=O)NCc3cnc(N4CCN(C(=O)CCOCCN5CCN(c6ncc(C(=O)N7CCc8cc(Cn9nc(-c%10ccc%11oc(N)nc%11c%10)c%10c(N)ncnc%109)ccc8C7)cn6)CC5)CC4)nc3)[C@H](OC)C2)CC[C@H](C)/C=C(\C)[C@@H](O)[C@@H](OC)C(=O)[C@H](C)C[C@H](C)/C=C/C=C/C=C/1C [Example 118]	3.16 to 31.6	< 1	< 3.16			
CO[C@H]1C[C@@H]2CC[C@@H](C)[C@@](O)(O2)C(=O)C(=O)N2CCCC[C@H]2C(=O)O[C@H]([C@H](C)C[C@@H]2CC[C@@H](OC(=O)NCCOCCOCCOCCOCCOCCOCCOCCOCCC(=O)NCCS(=O)(=O)c3ccc(C(=O)N4CCOc5ccc(-c6ccc(N)nc6)cc5C4)c(C)c3)[C@H](OC)C2)C[C@@H](O)[C@H](C)/C=C(\C)[C@@H](O)[C@@H](OC)C(=O)[C@H](C)C[C@H](C)/C=C/C=C/C=C/1C [Example 41]	> 1000	< 1	< 3.16			
CO[C@H]1C[C@@H]2CC[C@@H](C)[C@@](O)(O2)C(=O)C(=O)N2CCCC[C@H]2C(=O)O[C@H]([C@H](C)C[C@@H]2CC[C@@H](OC(=O)NCc3cnc(N4CCN(C(=O)CCOCCN5CCN(c6ncc(C(=O)N7CCc8cc(Cn9nc(-c%10cnc%11[nH]ccc%11c%10)c%10c(N)ncnc%109)ccc8C7)cn6)CC5)[C@@H](C(=O)O)C4)nc3)[C@H](OC)C2)CC(=O)[C@H](C)/C=C(\C)[C@@H](O)[C@@H](OC)C(=O)[C@H](C)C[C@H](C)/C=C/C=C/C=C/1C [Example 135]	> 1000	< 1	> 1000			
CO[C@H]1C[C@@H]2CC[C@@H](C)[C@@](O)(O2)C(=O)C(=O)N2CCCC[C@H]2C(=O)O[C@H]([C@H](C)C[C@@H]2CC[C@@H](OC(=O)NCc3cnc(N4CCN(c5ncc(C(=O)NCCOCCOCCOCCOCCC(=O)N6CCc7cc(Cn8nc(-c9ccc%10oc(N)nc%10c9)c9c(N)ncnc98)ccc7C6)cn5)[C@@H](C(=O)O)C4)nc3)[C@H](OC)C2)CC(=O)[C@H](C)/C=C(\C)[C@@H](O)[C@@H](OC)C(=O)[C@H](C)C[C@H](C)/C=C/C=C/C=C/1C [Example 105]				− (<6)	+++ (≥9)	++ (8.5 > pIC50 ≥ 7.5)
CO[C@H]1C[C@@H]2CC[C@@H](C)[C@@](O)(O2)C(=O)C(=O)N2CCCC[C@H]2C(=O)O[C@H]([C@H](C)C[C@@H]2CC[C@@H](OC(=O)N3CCc4nc(N5CCN(C(=O)CCOCCN6CCN(c7ncc(C(=O)N8CCc9cc(Cn%10nc(-c%11ccc%12oc(N)nc%12c%11)c%11c(N)ncnc%11%10)ccc9C8)cn7)CC6)CC5)ncc4C3)[C@H](OC)C2)C[C@@H](OC)[C@H](C)/C=C(\C)[C@@H](O)[C@@H](OC)C(=O)[C@H](C)C[C@H](C)/C=C/C=C/C=C/1C [Example 117]	3.16 to 31.6	< 1	< 3.16			
CO[C@H]1C[C@@H]2CC[C@@H](C)[C@@](O)(O2)C(=O)C(=O)N2CCCC[C@H]2C(=O)O[C@H]([C@H](C)C[C@@H]2CC[C@@H](OC(=S)NCCOCCOCCOCCOCCOCCOCCOCCOCCC(=O)N3CCc4cc(Cn5nc(-c6ccc7oc(N)nc7c6)c6c(N)ncnc65)ccc4C3)[C@H](OC)C2)C[C@@H](OC)[C@H](C)/C=C(\C)[C@@H](O)[C@@H](OC)C(=O)[C@H](C)C[C@H](C)/C=C/C=C/C=C/1C [Example 34]	> 1000	< 1	> 1000			
